By EC50 is commonly meant the concentration that produces a half-maximal response. By Kd is commonly meant a measure of binding affinity in units of concentration. The IC50 is the concentration that gives 50% inhibition.

Each structure is given as a SMILES string.

The text below walks through data of ChEMBL document CHEMBL1135773, “Purine and pyrimidine (P2) receptors as drug targets” (J Med Chem, 2002).

One test concerns the target T1, P2X purinoceptor 4 (Homo sapiens, UniProt Q99571).
T1 sequence (Q99571 whole entry): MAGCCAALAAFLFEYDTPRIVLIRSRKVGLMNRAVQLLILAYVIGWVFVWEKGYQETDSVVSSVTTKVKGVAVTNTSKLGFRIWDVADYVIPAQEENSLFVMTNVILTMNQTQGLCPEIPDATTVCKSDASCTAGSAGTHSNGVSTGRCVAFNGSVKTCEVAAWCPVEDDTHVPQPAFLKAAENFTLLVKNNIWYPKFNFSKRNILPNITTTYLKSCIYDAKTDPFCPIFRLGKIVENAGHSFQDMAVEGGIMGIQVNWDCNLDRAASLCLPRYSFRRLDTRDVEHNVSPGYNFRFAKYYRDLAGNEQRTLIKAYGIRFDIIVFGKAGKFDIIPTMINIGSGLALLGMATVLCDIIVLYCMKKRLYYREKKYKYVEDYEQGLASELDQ
Nature of the test: Antagonist activity against recombinant human P2X purinoceptor 4 (P2X4). It is filed as functional.

Another test concerns the target T2, P2X purinoceptor 2 (Rattus norvegicus, UniProt P49653).
T2 sequence (P49653 whole entry): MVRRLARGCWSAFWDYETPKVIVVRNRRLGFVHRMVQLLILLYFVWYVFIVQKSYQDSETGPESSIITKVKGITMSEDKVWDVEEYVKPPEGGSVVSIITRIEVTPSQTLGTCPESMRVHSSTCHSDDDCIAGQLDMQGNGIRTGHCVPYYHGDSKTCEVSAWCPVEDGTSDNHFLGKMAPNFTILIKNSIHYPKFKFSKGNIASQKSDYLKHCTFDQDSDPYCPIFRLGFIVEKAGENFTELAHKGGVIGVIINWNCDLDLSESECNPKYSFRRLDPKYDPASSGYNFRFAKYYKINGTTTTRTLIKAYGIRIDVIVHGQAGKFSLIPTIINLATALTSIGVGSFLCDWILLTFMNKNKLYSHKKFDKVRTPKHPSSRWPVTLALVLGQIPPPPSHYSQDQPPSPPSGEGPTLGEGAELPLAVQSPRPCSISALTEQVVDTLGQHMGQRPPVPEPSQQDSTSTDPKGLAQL
Description: Antagonist activity against recombinant rat receptor P2X purinoceptor 2 (P2X2) at 10 uM, expressed in Xenopus oocytes. It is filed as functional, cell-based, Oocyte.

For another test, the target named is P2Y purinoceptor 2 (Homo sapiens, UniProt P41231). Description: Evaluated for agonist activity against phospholipase C coupled recombinant human P2Y purinoceptor 2 (P2Y2). It is filed as functional.
Chain of P2Y purinoceptor 2 (P41231 whole entry): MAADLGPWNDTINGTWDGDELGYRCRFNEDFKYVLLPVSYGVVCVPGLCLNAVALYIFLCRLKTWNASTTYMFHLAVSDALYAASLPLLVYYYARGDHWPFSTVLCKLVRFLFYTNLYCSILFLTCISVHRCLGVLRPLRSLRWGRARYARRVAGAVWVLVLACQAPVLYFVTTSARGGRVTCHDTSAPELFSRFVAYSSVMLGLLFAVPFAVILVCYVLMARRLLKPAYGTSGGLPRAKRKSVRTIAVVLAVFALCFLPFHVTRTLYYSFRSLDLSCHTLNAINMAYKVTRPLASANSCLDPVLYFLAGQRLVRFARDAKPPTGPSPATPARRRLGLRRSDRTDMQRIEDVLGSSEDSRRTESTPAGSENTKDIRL
In a further test the target is T3, P2Y purinoceptor 11 (Homo sapiens, UniProt Q96G91).
T3 sequence (Q96G91 whole entry): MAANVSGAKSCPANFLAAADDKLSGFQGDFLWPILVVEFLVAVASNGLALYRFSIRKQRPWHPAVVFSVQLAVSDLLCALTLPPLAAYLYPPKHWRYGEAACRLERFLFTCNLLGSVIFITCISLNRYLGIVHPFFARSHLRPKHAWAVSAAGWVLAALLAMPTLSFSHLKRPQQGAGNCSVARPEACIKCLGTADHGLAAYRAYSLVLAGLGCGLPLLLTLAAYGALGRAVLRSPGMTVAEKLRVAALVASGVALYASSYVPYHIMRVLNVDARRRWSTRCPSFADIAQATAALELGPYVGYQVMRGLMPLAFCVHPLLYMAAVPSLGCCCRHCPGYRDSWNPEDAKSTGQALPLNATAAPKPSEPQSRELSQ
Description: Agonist activity against phospholipase C coupled human P2Y purinoceptor 11 (P2Y11). It is filed as functional.

Another test deals with P2Y purinoceptor 12 (Rattus norvegicus, UniProt Q9EPX4). Nature of the test: Antagonist activity against phospholipase C coupled rat P2Y purinoceptor 12 (P2Y12). It is filed as functional.
Chain of P2Y purinoceptor 12 (Q9EPX4 whole entry): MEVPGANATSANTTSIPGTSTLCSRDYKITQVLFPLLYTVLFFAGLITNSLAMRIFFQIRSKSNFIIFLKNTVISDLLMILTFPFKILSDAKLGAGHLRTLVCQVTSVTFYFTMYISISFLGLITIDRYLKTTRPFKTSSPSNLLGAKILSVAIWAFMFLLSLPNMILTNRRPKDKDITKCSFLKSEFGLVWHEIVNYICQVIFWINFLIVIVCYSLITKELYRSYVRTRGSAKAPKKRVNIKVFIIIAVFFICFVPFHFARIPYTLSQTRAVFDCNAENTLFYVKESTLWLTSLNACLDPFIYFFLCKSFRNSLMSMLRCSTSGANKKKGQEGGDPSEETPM
The target in the next test is P2Y purinoceptor 1 (Meleagris gallopavo, UniProt P49652). Description: Evaluated for antagonist activity agonist phospholipase C coupled P2Y purinoceptor 1 (P2Y1) of turkey erythrocytes. It is filed as functional.
Chain of P2Y purinoceptor 1 (P49652 whole entry): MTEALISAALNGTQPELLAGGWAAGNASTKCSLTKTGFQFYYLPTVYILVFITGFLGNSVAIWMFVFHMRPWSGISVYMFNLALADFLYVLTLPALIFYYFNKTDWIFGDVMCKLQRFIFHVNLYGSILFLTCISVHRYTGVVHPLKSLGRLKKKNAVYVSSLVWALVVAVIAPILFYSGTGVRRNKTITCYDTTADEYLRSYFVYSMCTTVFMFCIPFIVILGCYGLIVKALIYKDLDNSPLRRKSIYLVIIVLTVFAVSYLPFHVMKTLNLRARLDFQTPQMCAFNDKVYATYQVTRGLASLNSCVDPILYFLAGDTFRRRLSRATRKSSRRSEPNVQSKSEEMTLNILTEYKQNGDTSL
Test [1] deals with T4, P2X purinoceptor 1 (Rattus norvegicus, UniProt P47824). Description: (§1) Dissociation constant of the compound at P2X purinoceptor 1 (P2X1) from rat vas deferens was reported.
Test [2] has as its target T4, P2X purinoceptor 1. Nature of the test: The compound was evaluated for antagonist activity against P2X purinoceptor 1 (P2X1) receptor from rat vas deferens. It is filed as functional.
In test [3] the target is P2Y purinoceptor 1 (Cavia porcellus). Description: The compound was evaluated for antagonistic activity at P2Y purinoceptor 1 (P2Y1) from guinea pig taenia coli.
Test [4] concerns the target T5, P2X purinoceptor 1 (Rattus norvegicus, UniProt P47824).
T5 sequence (P47824 whole entry): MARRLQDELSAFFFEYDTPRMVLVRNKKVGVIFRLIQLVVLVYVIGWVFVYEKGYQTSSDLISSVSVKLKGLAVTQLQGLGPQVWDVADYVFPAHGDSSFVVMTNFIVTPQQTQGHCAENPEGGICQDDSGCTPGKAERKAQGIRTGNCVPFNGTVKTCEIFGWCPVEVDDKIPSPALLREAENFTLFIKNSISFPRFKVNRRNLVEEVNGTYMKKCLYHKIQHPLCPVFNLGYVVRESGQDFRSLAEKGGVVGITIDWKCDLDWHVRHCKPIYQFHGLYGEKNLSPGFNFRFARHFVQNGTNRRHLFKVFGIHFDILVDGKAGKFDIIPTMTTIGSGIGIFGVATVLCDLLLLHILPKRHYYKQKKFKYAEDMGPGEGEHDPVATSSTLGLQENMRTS
Nature of the test: The compound was evaluated for antagonist activity against P2X purinoceptor 1 (P2X1) from rat vas deferens. It is filed as functional.

The target in test [5] is T5, P2X purinoceptor 1. The description is as §1. The source holds these as a separate data set.

On to `Nc1c(S(=O)(=O)O)cc(Nc2ccc(Nc3nc(Cl)nc(Nc4cccc(S(=O)(=O)O)c4)n3)c(S(=O)(=O)O)c2)c2c1C(=O)c1ccccc1C2=O` [RB 2], for which the EC50 on P2X purinoceptor 4 was 128 µM; on P2X purinoceptor 2, 0.36 µM; on P2Y purinoceptor 2, more than 100 µM; on P2Y purinoceptor 11, more than 100 µM; at P2Y purinoceptor 12, 0.025 µM; on P2Y purinoceptor 1, more than 10 µM.
For the molecule `Cc1nc(/N=N/c2ccc(C(=O)O)c(Cl)c2)c(COP(=O)(O)O)c(C=O)c1O`, the Kd on P2X purinoceptor 1 [1] is 1.6 µM; in test [3], 2.9 µM. At P2X purinoceptor 1 [2], this molecule had an IC50 of 9.6 µM.
Consider `Nc1c(S(=O)(=O)O)cc(Nc2ccc(Nc3nc(Cl)nc(Nc4ccccc4S(=O)(=O)O)n3)c(S(=O)(=O)O)c2)c2c1C(=O)c1ccccc1C2=O` [CIBACRON BLUE 3GA], for which the midpoint of inhibition against P2X purinoceptor 1 [4], the IC50, lay at 9.6 µM. For the same molecule, on P2X purinoceptor 1 [5], the Kd was determined as 1.6 µM.
